Laboratory results: ChEMBL document CHEMBL5055685, “Discovery of the First Potent IDO1/IDO2 Dual Inhibitors: A Promising Strategy for Cancer Immunotherapy” (J Med Chem, 2021)
Calls of active or inactive are those of the source. The rule behind the calls is not given here.

What was measured:
[1] = target: Mitogen-activated protein kinase 8 (Homo sapiens) (UniProt P45983); experiment: Inhibition of JNK1 (unknown origin) at 1 uM
HCT-116 [2] = experiment: Antitumor immunity in BALB/c mouse xenografted with human HCT-116 cells assessed as live Treg cells in spleen by propidium iodide staining based flow cytometry analysis (reference value: 70.9 %); assay type: functional
[3] = target: Ribosomal protein S6 kinase alpha-5 (Homo sapiens) (UniProt O75582); experiment: Inhibition of MSK1 (unknown origin) at 1 uM
[4] = target: Myotonin-protein kinase (Homo sapiens) (UniProt Q09013); experiment: Inhibition of DMPK (unknown origin) at 1 uM
[5] = target: Tyrosine-protein kinase ABL2 (Homo sapiens) (UniProt P42684); experiment: Inhibition of ABL2 (unknown origin) at 1 uM
[6] = target: G protein-coupled receptor kinase 6 (Homo sapiens) (UniProt P43250); experiment: Inhibition of GRK6 (unknown origin) at 1 uM
[7] = target: Protein kinase C zeta type (Homo sapiens) (UniProt Q05513); experiment: Inhibition of PKCzeta (unknown origin) at 1 uM
[8] = target: Platelet-derived growth factor receptor beta (Homo sapiens) (UniProt P09619); experiment: Inhibition of PDGFRbeta (unknown origin) at 1 uM
[9] = target: Mitogen-activated protein kinase 11 (Homo sapiens) (UniProt Q15759); experiment: Inhibition of p38beta (unknown origin) at 1 uM
[10] = target: Protein kinase C eta type (Homo sapiens) (UniProt P24723); experiment: Inhibition of PKCeta (unknown origin)at 1 uM
[11] = target: Tyrosine-protein kinase receptor TYRO3 (Homo sapiens) (UniProt Q06418); experiment: Inhibition of TYRO3 (unknown origin) at 1 uM
[12] = target: Activin receptor type-1-like (Homo sapiens) (UniProt P37023); experiment: Inhibition of ALK1 (unknown origin) at 1 uM
[13] = target: Serine/threonine-protein kinase D1 (Homo sapiens) (UniProt Q15139); experiment: Inhibition of PKCmu (unknown origin) at 1 uM
[14] = target: Bone morphogenetic protein receptor type-2 (Homo sapiens) (UniProt Q13873); experiment: Inhibition of BMPR2 (unknown origin) at 1 uM
[15] = target: Phosphorylase b kinase gamma catalytic chain, skeletal muscle/heart isoform (Homo sapiens) (UniProt Q16816); experiment: Inhibition of PHKgamma1 (unknown origin) at 1 uM
[16] = target: Serine/threonine-protein kinase 17A (Homo sapiens) (UniProt Q9UEE5); experiment: Inhibition of DRAK1 (unknown origin) at 1 uM
[17] = Tmax in Sprague-Dawley rat at 50 mg/kg, po; assay type: ADME, organism-based; settings: in vivo
[18] = target: Casein kinase I isoform gamma-2 (Homo sapiens) (UniProt P78368); experiment: Inhibition of CK1gamma2 (unknown origin) at 1 uM
[19] = target: Serine/threonine-protein kinase SIK3 (Homo sapiens) (UniProt Q9Y2K2); experiment: Inhibition of SIK3 (unknown origin) at 1 uM
[20] = target: Serine/threonine-protein kinase 38 (Homo sapiens) (UniProt Q15208); experiment: Inhibition of STK38 (unknown origin) at 1 uM
[21] = Protein binding in human plasma assessed as fraction unbound by equilibrium dialysis; assay type: ADME, cell-free
[22] = target: Serine/threonine-protein kinase 4 (Homo sapiens) (UniProt Q13043); experiment: Inhibition of MST1 (unknown origin) at 1 uM
[23] = target: Protein kinase C beta type (Homo sapiens) (UniProt P05771); experiment: Inhibition of PKCb2 (unknown origin) at 1 uM
[24] = target: Myosin-IIIb (Homo sapiens) (UniProt Q8WXR4); experiment: Inhibition of MYO3B (unknown origin) at 1 uM
[25] = target: Ephrin type-B receptor 3 (Homo sapiens) (UniProt P54753); experiment: Inhibition of EPHB3 (unknown origin) at 1 uM
[26] = target: ALK tyrosine kinase receptor (Homo sapiens) (UniProt Q9UM73); experiment: Inhibition of ALK (unknown origin) at 1 uM
[27] = target: Serine/threonine-protein kinase haspin (Homo sapiens) (UniProt Q8TF76); experiment: Inhibition of haspin (unknown origin) at 1 uM
HCT-116 [28] = experiment: Antitumor activity against human HCT-116 cells xenografted in BALB/c nude mouse assessed as tumor growth inhibition at 100 to 300 mg/kg, ig bid for 21 days by vernier caliper method; assay type: functional, organism-based; settings: dose 100-300 mg/kg, time 21.0 day
[29] = target: Serine/threonine-protein kinase PAK 1 (Homo sapiens) (UniProt Q13153); experiment: Inhibition of PAK1 (unknown origin) at 1 uM
[30] = target: Muscle, skeletal receptor tyrosine-protein kinase (Homo sapiens) (UniProt O15146); experiment: Inhibition of MUSK (unknown origin) at 1 uM
[31] = target: Cyclin-dependent kinase 2/cyclin E1 (Homo sapiens) (UniProt P24864+P24941); experiment: Inhibition of CDK2/cyclin-E (unknown origin) at 1 uM; assay type: protein-complex assay
[32] = target: Interleukin-1 receptor-associated kinase 1 (Homo sapiens) (UniProt P51617); experiment: Inhibition of IRAK1 (unknown origin) at 1 uM
[33] = target: CDK18/Cyclin Y (Homo sapiens) (UniProt Q07002+Q8ND76); experiment: Inhibition of CDK18/cyclin-Y (unknown origin) at 1 uM; assay type: protein-complex assay
HCT-116 [34] = experiment: Antitumor immunity in BALB/c mouse xenografted with human HCT-116 cells assessed as increase in CD86 expression in CD11c+ cells by propidium iodide staining based flow cytometry analysis (reference value: 72 %); assay type: functional
HCT-116 [35] = experiment: Antitumor immunity in BALB/c mouse xenografted with human HCT-116 cells assessed as induction of apoptosis of CD4+ T-lymphocytes in spleen by propidium iodide staining based flow cytometry analysis (reference value: 33.9 %); assay type: functional
[36] = target: Dual specificity mitogen-activated protein kinase kinase 6 (Homo sapiens) (UniProt P52564); experiment: Inhibition of MKK6 (unknown origin) at 1 uM
[37] = target: Calcium/calmodulin-dependent protein kinase type 1 (Homo sapiens) (UniProt Q14012); experiment: Inhibition of CAMK1A (unknown origin) at 1 uM
[38] = target: Dual specificity tyrosine-phosphorylation-regulated kinase 1B (Homo sapiens) (UniProt Q9Y463); experiment: Inhibition of DYRK1B (unknown origin) at 1 uM
[39] = target: Ephrin type-B receptor 1 (Homo sapiens) (UniProt P54762); experiment: Inhibition of EPHB1 (unknown origin) at 1 uM
[40] = target: Insulin receptor-related protein (Homo sapiens) (UniProt P14616); experiment: Inhibition of IRR (unknown origin) at 1 uM
[41] = target: Mitogen-activated protein kinase kinase kinase 7 (Homo sapiens) (UniProt O43318); experiment: Inhibition of TAK1 (unknown origin) at 1 uM
Mus musculus = experiment: Toxicity in BALB/c mouse implanted with mouse CT26 cells assessed as weight loss at 50 mg/kg, ip bid for 28 days; assay type: organism-based; settings: in vivo, 672 h, time 28 day
[42] = target: Serine/threonine-protein kinase tousled-like 2 (Homo sapiens) (UniProt Q86UE8); experiment: Inhibition of TLK2 (unknown origin) at 1 uM

Sequence of Casein kinase I isoform gamma-2 (Homo sapiens) (P78368 whole entry, looked up, canonical isoform): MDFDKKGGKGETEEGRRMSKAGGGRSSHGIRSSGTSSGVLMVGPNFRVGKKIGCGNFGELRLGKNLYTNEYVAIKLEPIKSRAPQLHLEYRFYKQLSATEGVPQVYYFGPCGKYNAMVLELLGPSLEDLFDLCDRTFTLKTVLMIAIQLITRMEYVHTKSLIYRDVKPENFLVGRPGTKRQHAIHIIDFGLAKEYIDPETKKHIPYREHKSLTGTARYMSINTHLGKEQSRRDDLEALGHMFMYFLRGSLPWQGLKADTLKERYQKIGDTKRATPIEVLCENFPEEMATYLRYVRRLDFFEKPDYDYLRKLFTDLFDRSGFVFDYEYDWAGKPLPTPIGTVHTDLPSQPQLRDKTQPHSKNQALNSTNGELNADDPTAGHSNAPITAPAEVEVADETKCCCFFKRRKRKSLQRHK
Sequence of Tyrosine-protein kinase receptor TYRO3 (Homo sapiens) (Q06418 whole entry): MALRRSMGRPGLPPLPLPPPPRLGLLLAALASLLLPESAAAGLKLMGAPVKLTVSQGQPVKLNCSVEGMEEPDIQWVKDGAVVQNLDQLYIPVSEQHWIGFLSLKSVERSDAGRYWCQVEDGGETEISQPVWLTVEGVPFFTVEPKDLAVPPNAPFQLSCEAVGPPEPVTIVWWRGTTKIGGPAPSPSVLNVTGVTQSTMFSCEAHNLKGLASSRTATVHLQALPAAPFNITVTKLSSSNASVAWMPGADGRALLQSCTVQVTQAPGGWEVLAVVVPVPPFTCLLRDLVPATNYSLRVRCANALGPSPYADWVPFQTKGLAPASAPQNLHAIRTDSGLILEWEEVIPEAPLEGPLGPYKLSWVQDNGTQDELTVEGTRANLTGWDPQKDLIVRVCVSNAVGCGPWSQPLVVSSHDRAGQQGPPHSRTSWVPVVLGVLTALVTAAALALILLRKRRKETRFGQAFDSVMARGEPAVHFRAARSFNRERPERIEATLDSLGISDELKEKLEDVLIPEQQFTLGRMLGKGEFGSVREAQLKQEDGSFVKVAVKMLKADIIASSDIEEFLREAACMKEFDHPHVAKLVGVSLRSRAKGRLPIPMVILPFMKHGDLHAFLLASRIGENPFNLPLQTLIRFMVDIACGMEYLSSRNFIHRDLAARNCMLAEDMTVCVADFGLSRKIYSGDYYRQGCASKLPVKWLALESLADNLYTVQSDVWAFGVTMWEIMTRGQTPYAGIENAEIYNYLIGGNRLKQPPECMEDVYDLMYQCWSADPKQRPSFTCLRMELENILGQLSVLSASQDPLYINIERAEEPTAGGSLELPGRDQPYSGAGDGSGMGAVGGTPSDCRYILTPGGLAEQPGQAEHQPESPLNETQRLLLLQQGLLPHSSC
Sequence of Serine/threonine-protein kinase 4 (Homo sapiens) (Q13043 whole entry): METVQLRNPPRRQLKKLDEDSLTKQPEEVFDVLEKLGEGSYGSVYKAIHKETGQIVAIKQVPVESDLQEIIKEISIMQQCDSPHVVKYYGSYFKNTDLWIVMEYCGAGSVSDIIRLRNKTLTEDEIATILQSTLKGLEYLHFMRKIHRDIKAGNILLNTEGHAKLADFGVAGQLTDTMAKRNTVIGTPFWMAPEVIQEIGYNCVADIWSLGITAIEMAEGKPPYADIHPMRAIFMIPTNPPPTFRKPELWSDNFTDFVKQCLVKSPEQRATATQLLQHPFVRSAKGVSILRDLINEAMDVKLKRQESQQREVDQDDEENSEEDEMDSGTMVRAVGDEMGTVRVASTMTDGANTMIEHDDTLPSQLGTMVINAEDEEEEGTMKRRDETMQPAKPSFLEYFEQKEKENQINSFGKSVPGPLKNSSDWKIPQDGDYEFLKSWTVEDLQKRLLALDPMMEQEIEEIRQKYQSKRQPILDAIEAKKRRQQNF
Sequence of Mitogen-activated protein kinase 8 (Homo sapiens) (P45983 whole entry): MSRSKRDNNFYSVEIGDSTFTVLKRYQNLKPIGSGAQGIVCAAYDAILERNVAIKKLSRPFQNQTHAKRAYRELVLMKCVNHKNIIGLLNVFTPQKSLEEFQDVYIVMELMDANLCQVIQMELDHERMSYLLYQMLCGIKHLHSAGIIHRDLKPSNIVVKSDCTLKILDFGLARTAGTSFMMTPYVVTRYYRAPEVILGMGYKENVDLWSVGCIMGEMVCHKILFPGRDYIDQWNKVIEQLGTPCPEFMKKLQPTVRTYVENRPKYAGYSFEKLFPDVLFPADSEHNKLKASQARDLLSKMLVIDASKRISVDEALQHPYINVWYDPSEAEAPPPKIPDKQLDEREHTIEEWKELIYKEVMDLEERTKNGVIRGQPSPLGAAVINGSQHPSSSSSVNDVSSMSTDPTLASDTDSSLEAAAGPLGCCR
Sequence of Mitogen-activated protein kinase 11 (Homo sapiens) (Q15759 whole entry): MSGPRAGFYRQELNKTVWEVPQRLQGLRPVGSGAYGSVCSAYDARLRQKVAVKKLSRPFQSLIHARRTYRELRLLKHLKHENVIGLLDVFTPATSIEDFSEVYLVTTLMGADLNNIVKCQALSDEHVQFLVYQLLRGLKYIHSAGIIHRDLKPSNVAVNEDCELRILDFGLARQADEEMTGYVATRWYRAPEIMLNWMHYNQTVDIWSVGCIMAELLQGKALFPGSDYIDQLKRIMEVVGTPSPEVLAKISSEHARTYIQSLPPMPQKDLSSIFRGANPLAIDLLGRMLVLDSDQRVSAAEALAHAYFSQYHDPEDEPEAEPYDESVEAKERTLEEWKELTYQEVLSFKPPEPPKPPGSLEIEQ
Sequence of Tyrosine-protein kinase ABL2 (Homo sapiens) (P42684 whole entry): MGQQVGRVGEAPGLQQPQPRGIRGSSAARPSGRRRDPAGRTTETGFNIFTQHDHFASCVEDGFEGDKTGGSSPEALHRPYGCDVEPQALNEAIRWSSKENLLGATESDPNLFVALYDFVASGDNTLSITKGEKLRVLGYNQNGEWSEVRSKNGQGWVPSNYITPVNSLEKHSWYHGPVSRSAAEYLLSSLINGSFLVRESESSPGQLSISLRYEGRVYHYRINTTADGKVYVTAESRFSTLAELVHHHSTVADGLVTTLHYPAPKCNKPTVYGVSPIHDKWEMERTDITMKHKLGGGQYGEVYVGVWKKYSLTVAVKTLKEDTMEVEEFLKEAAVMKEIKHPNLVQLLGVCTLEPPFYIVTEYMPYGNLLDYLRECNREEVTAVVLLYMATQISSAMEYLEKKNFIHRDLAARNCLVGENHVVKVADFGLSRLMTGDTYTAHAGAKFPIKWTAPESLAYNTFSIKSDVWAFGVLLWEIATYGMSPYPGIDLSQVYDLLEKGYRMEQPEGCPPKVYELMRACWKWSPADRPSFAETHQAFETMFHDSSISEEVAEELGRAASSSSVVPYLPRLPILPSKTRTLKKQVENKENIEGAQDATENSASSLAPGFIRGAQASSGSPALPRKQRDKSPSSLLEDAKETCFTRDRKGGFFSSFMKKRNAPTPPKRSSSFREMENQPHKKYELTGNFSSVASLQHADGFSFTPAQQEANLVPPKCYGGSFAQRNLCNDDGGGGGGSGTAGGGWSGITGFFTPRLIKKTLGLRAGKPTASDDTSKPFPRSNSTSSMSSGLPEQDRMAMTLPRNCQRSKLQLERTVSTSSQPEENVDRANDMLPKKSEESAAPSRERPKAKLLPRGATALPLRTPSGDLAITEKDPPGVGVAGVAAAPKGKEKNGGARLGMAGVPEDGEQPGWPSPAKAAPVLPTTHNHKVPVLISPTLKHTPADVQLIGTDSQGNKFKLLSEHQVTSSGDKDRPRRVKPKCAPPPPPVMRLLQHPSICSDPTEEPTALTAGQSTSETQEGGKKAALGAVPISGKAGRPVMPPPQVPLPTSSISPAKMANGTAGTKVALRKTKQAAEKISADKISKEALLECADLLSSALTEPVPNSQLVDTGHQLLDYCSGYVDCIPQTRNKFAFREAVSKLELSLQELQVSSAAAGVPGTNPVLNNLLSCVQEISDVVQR
Sequence of Mitogen-activated protein kinase kinase kinase 7 (Homo sapiens) (O43318 whole entry): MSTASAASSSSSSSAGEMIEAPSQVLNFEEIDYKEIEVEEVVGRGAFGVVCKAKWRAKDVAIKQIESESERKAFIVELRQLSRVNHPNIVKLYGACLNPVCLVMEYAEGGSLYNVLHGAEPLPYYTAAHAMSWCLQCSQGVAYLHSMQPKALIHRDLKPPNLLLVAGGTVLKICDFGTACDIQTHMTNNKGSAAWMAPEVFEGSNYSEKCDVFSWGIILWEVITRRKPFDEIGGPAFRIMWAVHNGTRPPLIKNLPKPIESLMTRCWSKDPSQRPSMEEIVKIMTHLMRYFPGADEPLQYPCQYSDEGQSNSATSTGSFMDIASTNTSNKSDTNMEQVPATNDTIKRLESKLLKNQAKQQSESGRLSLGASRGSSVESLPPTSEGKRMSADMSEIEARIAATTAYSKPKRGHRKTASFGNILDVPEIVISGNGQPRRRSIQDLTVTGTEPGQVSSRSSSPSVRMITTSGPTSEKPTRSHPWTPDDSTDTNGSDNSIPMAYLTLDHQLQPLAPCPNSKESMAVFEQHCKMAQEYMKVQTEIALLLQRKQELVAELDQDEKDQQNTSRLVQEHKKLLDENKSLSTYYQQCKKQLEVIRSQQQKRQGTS
Sequence of Dual specificity tyrosine-phosphorylation-regulated kinase 1B (Homo sapiens) (Q9Y463 whole entry, looked up): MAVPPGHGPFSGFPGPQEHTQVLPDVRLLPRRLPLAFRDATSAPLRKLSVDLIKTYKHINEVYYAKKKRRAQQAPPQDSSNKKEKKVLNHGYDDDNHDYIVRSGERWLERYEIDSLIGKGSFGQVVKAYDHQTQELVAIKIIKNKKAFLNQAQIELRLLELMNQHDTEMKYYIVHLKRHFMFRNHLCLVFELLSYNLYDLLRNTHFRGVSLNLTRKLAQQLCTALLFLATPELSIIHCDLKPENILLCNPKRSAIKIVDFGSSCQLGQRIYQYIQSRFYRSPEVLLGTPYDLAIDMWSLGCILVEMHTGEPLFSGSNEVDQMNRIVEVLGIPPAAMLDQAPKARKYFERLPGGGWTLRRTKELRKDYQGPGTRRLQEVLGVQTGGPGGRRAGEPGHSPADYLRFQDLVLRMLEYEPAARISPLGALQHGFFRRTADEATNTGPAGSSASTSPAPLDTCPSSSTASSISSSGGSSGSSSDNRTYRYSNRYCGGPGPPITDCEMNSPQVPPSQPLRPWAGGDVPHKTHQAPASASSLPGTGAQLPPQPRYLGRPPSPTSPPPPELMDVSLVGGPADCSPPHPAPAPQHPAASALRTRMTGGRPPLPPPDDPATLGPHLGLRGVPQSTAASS

## OCCOCc1cn(CCNc2nonc2/C(=N/O)Nc2ccc(F)c(Br)c2)nn1
[1]
  inhibition: inactive
HCT-116 [2]
  Activity: 87.4%
[3]
  inhibition: inactive
[4]
  inhibition: inactive
[5]
  inhibition: inactive
[6]
  inhibition: inactive
[7]
  inhibition: inactive
[8]
  inhibition: inactive
[9]
  inhibition: inactive
[10]
  inhibition: inactive
[11]
  inhibition: inactive
[12]
  inhibition: inactive
[13]
  inhibition: inactive
[14]
  inhibition: inactive
[15]
  inhibition: inactive
[16]
  inhibition: inactive
[17]
  Tmax: 1.3 h
[18]
  inhibition: inactive
[19]
  inhibition: inactive
[20]
  inhibition: inactive
[21]
  fraction unbound: 0.0411
[22]
  inhibition: inactive
[23]
  inhibition: inactive
[24]
  inhibition: inactive
[25]
  inhibition: inactive
[26]
  inhibition: inactive
[27]
  inhibition: inactive
HCT-116 [28]
  Activity: inactive
[29]
  inhibition: inactive
[30]
  inhibition: inactive
[31]
  inhibition: inactive
[32]
  inhibition: inactive
[33]
  inhibition: inactive
HCT-116 [34]
  Activity: 62.6%
HCT-116 [35]
  Activity: 15.3%
[36]
  inhibition: inactive
[37]
  inhibition: inactive
[38]
  inhibition: inactive
[39]
  inhibition: inactive
[40]
  inhibition: inactive
[41]
  inhibition: inactive
Mus musculus
  Activity: Non-Toxic
[42]
  inhibition: inactive
